Experimental findings from patent US4966962A, “Reverse analogue of actinomycin D” (Trustees of Boston University, priority 1988, dated 1990) are described below.

Series [1] is described as follows: Toxic deaths in nontumored mice treated in parallel (colon 38 experiment). Format: in vivo. From the text: × 100; in parenthesis, number of over 100 day survivors/number of
mice in a group of nontumored mice treated in parallel with the
tumorbearing mice and observed for 100 days.

Series [2] deals with human colon carcinoma HT-29. Briefly: Inhibition of nucleic acid synthesis in HT-29 cells in vitro. In kind it is cell-based. To be noted: 2-h exposure. The source says: In addition to the P388 cells, this inhibitory activity in human carcinoma HT-29 grown in tissue culture has been also examined. The values of the drug concentration producing 50% inhibition of the incorporation of [^3 H]-thymidine and [^14 C] uridine into nucleic acid macromolecules are presented in Table V. These values are taken as estimates of the inhibition of DNA and RNA synthesis. […] Furthermore, the inhibitory activities of these analogues are three-to fivefold higher than AMD; the order of potency of the analogues for their inhibition of DNA synthesis is:
DNA and RNA synthesis in P388 and HT-29 cells lines was monitored in the presence of drugs, and the rates of inhibition of their synthesis were estimated from the amounts of [2-^14 C]-uridine and [^3 H]-thymidine into RNA and DNA, respectively, according to the methods described previously.
In brief, for HT-29 colon carcinoma monolayer cells, 10^4 cells in each of five wells per concentration, were incubated with radiolabelec nucleosides ([…] each) for the last hour of a 2-h drug exposure, following which the cells were aspirated and washed with buffered medium. Cells were trypsinized and counted in the Coulter counter. The cell suspensions were then precipitated onto glass fiber filter discs (Whatman 934H), with 10% trichloracetic acid and twice with 95% ethanol and dried, and the incorporation of radionucleotides was estimated.
In addition, to investigate the cross contamination of radioactivity from [2^14 C] uridine, the cells were lysed with ice-cold 1% Triton X for 2.5 min. Macromolecules were precipitated with the addition of 10% perchloric acid (5% in the medium) and centrifuged; the pellet in 1% NaCl was treated with an equal volume of phenol reagent, the emulsion was centrifuged at 10000 g for 30 min at 4° C., and the separated layer was adjusted to 1% NaCl and treated with an equal volume of 2-ethoxyethanol to precipitate the nucleic acids. The precipitate was washed with 75% ethanol and dissolved in an aqueous solution containing 2% sodium acetate and 1.5% NaCl. An aliquot was used for estimation of the total radionucleotide incorporation. Ribonuclease, previously heated to 80° C. for 10 min to destroy deoxyribonuclease activity, was added, and the mixture was incubated at 37° C. for 30 min.
^a Human colon carcinoma in culture, IC50, drug concentration
producing a 50% inhibition of incorporation of precursor [^3 H]
thymidine into DNA and [^14 C] uridine into RNA in the cell lines,
isolated as acid preciptable materials. Data are average of replicate

Series [3] can be described thus: Metabolism in tumor cell homogenate (T). In kind it is in vitro ADME, murine. To be noted: P388 homogenate (T), 37° C., 16 h. How it is done:
(§1) In this respect, actinomycin is only about 30% as efficient as its synthetic analogues, RAD III (3c) and SAD (2) (Table II). Metabolic Studies, Metabolism in the Presence of Tumor Cell Homogenates and Rat Liver Microsomes. The cell homogenates (P388 cells were sonicated and were incubated at 37° C. with analogues for 16 h. Rat microsomes were harvested from phenobarbital-induced rats by standard procedure. Incubations were carried out for 6 h in the presence of a NADPH-generating system, i.e., glucose-6-phosphate dehydrogenase and glucose 6-phosphate. The metabolites and their water-soluble conjugates were isolated and identified with the use of tritiated analogues.
(§2) It was observed that the RAD analogues are metabolized to SAD (2) with the loss of oxazole ring. […] In tumor cells, a larger fraction of SAD (2) (30-50%) remains unmetabolized. SAD is found to form glucuronide and sulfate conjugates only in tumor cells. […] Isolation of SAD from RAD analogues is a very important step, because SAD is found to be a potent and effective antitumor agent in several murine tumor systems (Tables V-XII).

Series [4] concerns rat liver microsomes. The series can be described thus: Metabolism in rat liver microsomes (M). Format: in vitro ADME. To be noted: 6 h, NADPH-generating system. On the procedure:
as §1, §2
A general note: Microsomes from liver hold many membrane-bound enzymes, among them those of drug oxidation.

A further series deals with lung LX-1. Briefly: Treatment of lung LX-1 tumor. In kind it is in vivo. To be noted: at the doses tested.
Series [5] deals with rat liver microsomes. The series can be described thus: Stimulation of adrenochrome formation (superoxide) by rat hepatic microsomal incubations. Format: biochemical. To be noted: for adrenochrome formation in presence of SOD: with SOD (superoxide dismutase) 5 ug/mL; for percentage stimulation of adrenochrome formation / adrenochrome formation: without SOD; for percentage stimulation of adrenochrome formation: (drug-stimulated rate - basal rate)/basal rate × 100; for adrenochrome formation: average ± standard error of triplicate. The source says: (§3) It has been reported that the quinone imino chromophore of actinomycin can be subjected to enzyme-catalyzed single-electron reduction to give free-radical species that generate superoxides by reacting with molecular oxygen. The process needs a reductive cofactor NADPH, which is oxidized to NADP^+ during the process, giving a change in the absorbance at 340 nm that can be measured spectrophotometerically. Alternatively, the superoxides generated during the process may be allowed to react with epinephrine to produce adrenochrome, a chromophore with strong absorbance at 480 nm that can be measured spectrophotmetrically.
(§4) The superoxide formations were studied via NADPH oxidation catalyzed by AMD analogues in the presence of rat liver microsomes. […] The process of adrenochrome formation is inhibited by superoxide dismutase, confirming that superoxide is indeed generated in these systems.
(§5) ^a The percentage stimulation = (drugstimulated rate basal rate)/basa
(§6) rate × 100 and is shown in parentheses. NADPH oxidation was measure
(§7) at 340 nm and adrenochrome formation was measured at 489 nm; the values
(§8) are average ± standard errors of triplicate analyses. ^b SOD,

In series [6] the test system is rat liver microsomes. The series can be described thus: Stimulation of NADPH oxidation by rat hepatic microsomal incubations. Format: biochemical. To be noted: for percentage stimulation of NADPH oxidation: (drug-stimulated rate - basal rate)/basal rate × 100; for NADPH oxidation: measured at 340 nm, average ± standard error of triplicate.
Source text: as §3, §4, §5, §6, §7, §8

Series [7] deals with P388/ADR (adriamycin resistant) leukemia. The series can be described thus: Antitumor activity in vivo, P388/ADR leukemia. Details: species or system mice. To be noted: at optimal dose, ip days 1, 5, 9. How it is done: The analogues were also tested against P388/ADR murine leukemia following the standard protocol (Table VI).
ILS = percent increase in life span.

In another series the test system is P388 Leukemia. The series can be described thus: Minimum effective dose in P388 tumor bearing mice. Format: in vivo. To be noted: for therapeutic index MTD/MED: MTD in normal BDF1 mice / MED in P388 tumor bearing mice; for MED (minimum effective dose), dose giving 45% increase in life span over control: ip once on days 1, 5, and 9, from plotted log-dose response data. From the text: ^a Drugs administered ip once on days 1, 5, and 9 starting 1 day afte
tumor implantation. Determinations were made from analysis of plotted
logdose response data. ^b MED (minimum effective dose) is the dose
(milligram/killogram) providing an increase in life span of 45% over

The mark [8] stands for this setting: dose 0.30 mg/kg iv days 1, 5, 9.
Where [9] appears, read: dose 0.60 mg/kg iv days 1, 5, 9.
[10] abbreviates: dose 1.20 mg/kg iv days 1, 5, 9.
[11] abbreviates: [3H]thymidine incorporation, read-out: IC50, DNA synth.
The mark [12] stands for this setting: [14C]uridine incorporation, read-out: IC50, RNA synth.
The mark [13] stands for this setting: dose 0.15 mg/kg iv days 1, 5, 9.

The structures appear in SMILES notation. Read-outs that look alike come from different tables or passages of the source. *1 amine or outer side, *2 acyl side, *3 side chain or, on linkers, in order; H or OH if unused. Where a SMILES comes first, the peptide text is derived from it. Bridges are numbered along the chain shown (N, C = ends). Roman numbers before positions name the chains, in order. [ ]: non-standard residue; d: D form. Actinocin(9to1) = Cc1c2oc3c(C)ccc(C(=O)[*:1])c3nc-2c(C(=O)[*:2])c(N)c1=O; NMeV = CN[C@H](C(=O)O)C(C)C; Sar = CNCC(=O)O

For the compound `Cc1c2oc3c(C)c(O)c(N)c(C(=O)N[C@@H]4C(=O)N[C@H](C(C)C)C(=O)N5CCC[C@H]5C(=O)N(C)CC(=O)N(C)[C@@H](C(C)C)C(=O)O[C@@H]4C)c3nc-2c(C(=O)N[C@@H]2C(=O)N[C@H](C(C)C)C(=O)N3CCC[C@H]3C(=O)N(C)CC(=O)N(C)[C@@H](C(C)C)C(=O)O[C@@H]2C)c(N)c1=O` [SAD (2)], in [1] (setting [8]), the toxic deaths is given as 0/9. Besides, the toxic deaths in series [1] (setting [9]) is given as 0/9. In series [1] (setting [10]), the toxic deaths was 4/9. In addition, in [2] (setting [11]), the half-inhibitory concentration (IC50) (in general, the point on the concentration scale where inhibition reaches its midpoint) is 0.07 ± 0.011 µM. Also, the half-inhibitory concentration (IC50) in series [2] (setting [12]) worked out at 0.055 ± 0.006 µM. Also, in [3], the “percent isolated: tissue bound” value worked out at 7.5 ± 1.0%, the “percent isolated: unidentified metabolite” value worked out at 10.0 ± 1.0%, the “percent metabolite isolated: SAD-glucuronide and/or sulfate” value worked out at 47.0 ± 6.5% and the “percent metabolite isolated: protein conjugates” value came out at 5.5 ± 1.5%. For the same compound, the percent unconverted drug in series [3] is reported as 30-50%. The compound also came in with a percent unconverted drug in series [3] (listed as SAD(2)) of 30.0 ± 3.0%. In addition, in the series on rat liver microsomes [4], the “percent isolated: tissue bound” value is 15.0 ± 3.0%, the “percent isolated: unidentified metabolite” value amounted to 15.0 ± 4.0%, the “percent metabolite isolated: SAD-glucuronide and/or sulfate” value is on record as “nil” and the “percent metabolite isolated: protein conjugates” value worked out at 20.0 ± 5.0%. The compound also gave a percent unconverted drug with rat liver microsomes [4] of 50.0 ± 10.5%. Also, in the series with lung LX-1, the “response of lung LX-1 to treatment” value is “practically ineffective”. Besides, in the series on rat liver microsomes [5], the “adrenochrome formation in presence of SOD” value is “inhibited”, the “percentage stimulation of adrenochrome formation” value is 815% and the adrenochrome formation was 19.3 ± 1.04 nmol/min per mg of protein. In the series with rat liver microsomes [6], the “percentage stimulation of NADPH oxidation” value worked out at 606% and the NADPH oxidation is reported as 64.3 ± 2.11 nmol/min per mg of protein. In series [7], the “tumor free survivors/total on day 60” value was 3/8. In the series with P388 Leukemia, the “therapeutic index MTD/MED” value was 96 and the “MED (minimum effective dose), dose giving 45% increase in life span over control” value is 0.025 milligram/killogram.

In the case of `Cc1c2oc3c(C)ccc(C(=O)N[C@@H]4C(=O)N[C@H](C(C)C)C(=O)N5CCC[C@H]5C(=O)N(C)CC(=O)N(C)[C@@H](C(C)C)C(=O)O[C@@H]4C)c3nc-2c(C(=O)N[C@@H]2C(=O)N[C@H](C(C)C)C(=O)N3CCC[C@H]3C(=O)N(C)CC(=O)N(C)[C@@H](C(C)C)C(=O)O[C@@H]2C)c(N)c1=O` [AMD (1), Actinomycin D] (I: T[dV]P[Sar][NMeV] / II: T[dV]P[Sar][NMeV]; ester I:1-I:C, II:1-II:C; linker I:N-II:N via Actinocin(9to1)), the toxic deaths is 0/9 in series [1] (dose 0.075 mg/kg iv days 1, 5, 9); 1/9 in series [1] (setting [13]); 0/9 in [1] (setting [8]); 1/9 in [1] (dose 0.45 mg/kg iv days 1, 5, 9); 4/9 in [1] (setting [9]). Besides, the half-maximal inhibitory concentration (IC50) in series [2] (setting [11]) worked out at 0.9 ± 0.08 µM; in series [2] (setting [12]), 0.1 ± 0.011 µM. The percent unconverted drug (in series [3]; with rat liver microsomes [4]) was 100% in each case. Further, the “response of lung LX-1 to treatment” value with lung LX-1 is “practically ineffective”. In addition, the “adrenochrome formation in presence of SOD” value with rat liver microsomes [5] is reported as “inhibited”. Moreover, the “percentage stimulation of adrenochrome formation” value in the series on rat liver microsomes [5] turned out to be 8.5%. Besides, the adrenochrome formation in the series with rat liver microsomes [5] is 2.29 ± 0.33 nmol/min per mg of protein. The “percentage stimulation of NADPH oxidation” value in the series on rat liver microsomes [6] stood at 9.9%. Moreover, in the series on rat liver microsomes [6], the NADPH oxidation is 10.01 ± 0.90 nmol/min per mg of protein. In addition, the “therapeutic index MTD/MED” value in the series with P388 Leukemia is given as 4. Also, the “MED (minimum effective dose), dose giving 45% increase in life span over control” value in the series with P388 Leukemia came out at 0.0625 milligram/killogram.

`Cc1c2oc3c(C)c4oc(-c5ccccc5)nc4c(C(=O)N[C@@H]4C(=O)N[C@H](C(C)C)C(=O)N5CCC[C@H]5C(=O)N(C)CC(=O)N(C)[C@@H](C(C)C)C(=O)O[C@@H]4C)c3nc-2c(C(=O)N[C@@H]2C(=O)N[C@H](C(C)C)C(=O)N3CCC[C@H]3C(=O)N(C)CC(=O)N(C)[C@@H](C(C)C)C(=O)O[C@@H]2C)c(N)c1=O` [RAD II (3b)]: the toxic deaths in [1] (setting [13]) is 1/9. Further, in [1] (setting [8]), the toxic deaths is on record as 0/9. Also, the toxic deaths in series [1] (setting [9]) is listed as 0/9. Further, the toxic deaths in series [1] (setting [10]) is 4/9. Besides, the IC50 in series [2] (setting [11]) is 0.58 ± 0.055 µM. For the same compound, the IC50 in series [2] (setting [12]) turned out to be 0.068 ± 0.01 µM. Further, in the series on rat liver microsomes [5], the “adrenochrome formation in presence of SOD” value is on record as “inhibited”, the “percentage stimulation of adrenochrome formation” value was 800% and the adrenochrome formation is 18.8 ± 1.9 nmol/min per mg of protein. Besides, in the series with rat liver microsomes [6], the “percentage stimulation of NADPH oxidation” value turned out to be 610% and the NADPH oxidation is 65.0 ± 5.95 nmol/min per mg of protein. In addition, the “tumor free survivors/total on day 60” value in series [7] is 1/8. In the series with P388 Leukemia, the “therapeutic index MTD/MED” value is 67 and the “MED (minimum effective dose), dose giving 45% increase in life span over control” value came out at 0.03 milligram/killogram.
